Experimental data: the supplement of paper PMC10307832

Compound: CC1=CC(=CC=C1)NC2=NC(=CS2)C3=CC=NC=C3 + CCNC(=O)c1noc(-c2cc(C(C)C)c(O)cc2O)c1-c1ccc(CN2CCOCC2)cc1 [Luminespib] (partner 0.01 µM)
Assay: relative viability (nuclei count vs DMSO), 5 days (fraction); higher = more cells survive
Settings: first compound 0.08 µM
Procedure, shortened: (§1)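 The day after seeding in 1536-well plates, lung cancer cell lines were treated by pin tool with a single drug, or with a fixed anchor-drug dose together with five library-drug doses (not always all listed) in √10 steps. After 5 days, a combined fix-and-stain solution (final 0.05% Triton X-100, 1% formaldehyde, 1 ug/ml Hoechst) was added. Nuclei counted on 4× images gave relative viability as treated counts over vehicle counts, reported as the median of duplicate plates.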

Cell Line	relative viability
NCI-H1755	0.519
NCI-H520	0.223
NCI-H2405	0.583
SW 1573	0.296
NCI-H1395	0.597
201T	1.08
NCI-H1975	0.252
HCC-827	0.618
NCI-H2347	0.409
NCI-H1355	0.64
NCI-H650	0.866
CAL-12T	0.399
NCI-H1666	0.976
EPLC-272H	0.194
NCI-H23	0.208
NCI-H1915	0.897
NCI-H1437	1.18
NCI-H322M	0.76
NCI-H2085	0.381
HCC-15	0.386
NCI-H1944	0.674
PC-3 [JPC-3]	0.715
EKVX	0.854
LC-2-ad	0.858
NCI-H1650	0.214
NCI-H2170	0.624

Same assay, conditions: first compound 0.253 µM

Cell Line	relative viability
HARA	0.872
NCI-H441	0.328
LCLC-97TM1	0.794
NCI-H2023	0.706
A-427	0.916
NCI-H460	0.0322
NCI-H727	0.373
NCI-H1755	0.46
NCI-H520	0.201
NCI-H2405	0.589
SW 1573	0.19
NCI-H1395	0.72
201T	0.993
NCI-H1975	0.17
HCC-827	0.453
NCI-H2347	0.248

Cell Line	relative viability
NCI-H1355	0.583
NCI-H650	0.803
CAL-12T	0.355
NCI-H1666	0.958
EPLC-272H	0.359
NCI-H23	0.184
NCI-H1915	0.857
NCI-H1437	1.17
NCI-H322M	0.893
NCI-H2085	0.428
HCC-15	0.299
NCI-H1944	0.771
PC-3 [JPC-3]	0.723
EKVX	0.835
NCI-H1650	0.181
NCI-H2170	0.701

Same assay, conditions: first compound 0.8 µM

Cell Line	relative viability
HARA	0.496
NCI-H441	0.411
LCLC-97TM1	0.839
NCI-H2023	0.889
A-427	0.918
NCI-H460	0.04
NCI-H727	0.378
NCI-H1755	0.428
NCI-H520	0.252
NCI-H2405	0.63
SW 1573	0.16
NCI-H1395	0.688
201T	1
NCI-H1975	0.201
HCC-827	0.649
NCI-H1355	0.375

Cell Line	relative viability
NCI-H650	0.929
CAL-12T	0.335
NCI-H1666	0.773
EPLC-272H	0.218
NCI-H23	0.208
NCI-H1915	0.833
NCI-H1437	1.1
NCI-H322M	0.924
NCI-H2085	0.444
HCC-15	0.475
NCI-H1944	0.792
PC-3 [JPC-3]	0.532
EKVX	0.892
LC-2-ad	1.09
NCI-H1650	0.222
NCI-H2170	0.775

Same assay, conditions: first compound 2.53 µM

Cell Line	relative viability
HARA	0.684
NCI-H441	0.391
LCLC-97TM1	0.816
NCI-H2023	0.659
A-427	0.729
NCI-H460	0.0298
NCI-H727	0.374
NCI-H1755	0.37
NCI-H520	0.206
NCI-H2405	0.666
SW 1573	0.248
NCI-H1395	0.643
201T	0.95
NCI-H1975	0.249
HCC-827	0.89
NCI-H2347	0.555
NCI-H1355	0.477

Cell Line	relative viability
NCI-H650	0.687
CAL-12T	0.513
NCI-H1666	0.81
EPLC-272H	0.245
NCI-H23	0.221
NCI-H1915	0.787
NCI-H1437	1.13
NCI-H322M	0.961
NCI-H2085	0.383
HCC-15	0.31
NCI-H1944	0.654
PC-3 [JPC-3]	0.633
EKVX	0.819
LC-2-ad	0.768
NCI-H1650	0.194
NCI-H2170	0.527

Same assay, conditions: first compound 8 µM

Cell Line	relative viability
HARA	0.359
NCI-H441	0.384
LCLC-97TM1	0.825
NCI-H2023	0.427
A-427	0.866
NCI-H460	0.0349
NCI-H727	0.402
NCI-H1755	0.486
NCI-H520	0.241
NCI-H2405	0.64
SW 1573	0.253
NCI-H1395	0.524
201T	0.849
NCI-H1975	0.184
HCC-827	0.726
NCI-H2347	0.232
NCI-H1355	0.502

Cell Line	relative viability
NCI-H650	0.893
CAL-12T	0.29
NCI-H1666	0.679
EPLC-272H	0.389
NCI-H23	0.22
NCI-H1915	0.776
NCI-H1437	0.98
NCI-H322M	0.982
NCI-H2085	0.393
HCC-15	0.274
NCI-H1944	0.72
PC-3 [JPC-3]	0.629
EKVX	0.765
LC-2-ad	0.965
NCI-H1650	0.186
NCI-H2170	0.48

Compound: CC1=CC(=CC=C1)NC2=NC(=CS2)C3=CC=NC=C3 + O=C(CCCCCCC(=O)Nc1ccccc1)NO [Vorinostat] (partner 1 µM)
Assay: as above
Settings: first compound 0.08 µM
Procedure, shortened: as §1

Cell Line	relative viability
HARA	0.492
NCI-H441	0.705
LCLC-97TM1	0.558
